Measured values reported in the NIST ThermoML archive (doi:10.1016/j.jct.2016.07.032).
Numbers after ± are expanded uncertainties.

experiment: not given; settings: 298 K; 101.3 kPa; Liquid; Frequency=3 MHz; Sing-around technique in a fixed-path interferometer

**Q.** Which speed of sound does the source give for `CN1CCCC1=O` [N-methylpyrrolidone] here?
**A.** The speed of sound was 1546 ± 2 m/s.

**Q.** Which speed of sound does the source give for `CCOc1ccccc1` [ethoxybenzene] here?
**A.** The speed of sound was 1369 ± 2 m/s.

**Q.** With `CN(C)C=O` [dimethylformamide] as the compound, how does the speed of sound read?
**A.** The speed of sound was 1457 ± 2 m/s.

**Q.** For `C1CCOC1` [tetrahydrofuran], which speed of sound is on record?
**A.** The speed of sound was 1278 ± 2 m/s.

same assay, conditions: 298 K; 101.3 kPa; Liquid; Vibrating tube method

**Q.** For `CN1CCCC1=O` [N-methylpyrrolidone], which mass density is on record?
**A.** Its mass density is 1026 ± 2 kg/m3.

**Q.** Which mass density does the source give for `CCOc1ccccc1` [ethoxybenzene] here?
**A.** The mass density was 960 ± 2 kg/m3.

**Q.** Which mass density does the source give for `CN(C)C=O` [dimethylformamide] here?
**A.** Its mass density is 944 ± 2 kg/m3.

**Q.** With `C1CCOC1` [tetrahydrofuran] as the compound, how does the mass density read?
**A.** Its mass density is 882 ± 2 kg/m3.

same assay, conditions: 303 K; 101.3 kPa; Liquid; Frequency=3 MHz; Sing-around technique in a fixed-path interferometer

**Q.** Which speed of sound does the source give for `CN1CCCC1=O` [N-methylpyrrolidone] here?
**A.** Its speed of sound is 1526 ± 2 m/s.

**Q.** For `CCOc1ccccc1` [ethoxybenzene], which speed of sound is on record?
**A.** Its speed of sound is 1349 ± 2 m/s.

**Q.** With `CN(C)C=O` [dimethylformamide] as the compound, how does the speed of sound read?
**A.** The speed of sound was 1437 ± 2 m/s.

**Q.** For `C1CCOC1` [tetrahydrofuran], which speed of sound is on record?
**A.** Its speed of sound is 1254 ± 2 m/s.

same assay, conditions: 303 K; 101.3 kPa; Liquid; Vibrating tube method

**Q.** Which mass density does the source give for `CN1CCCC1=O` [N-methylpyrrolidone] here?
**A.** Its mass density is 1022 ± 2 kg/m3.

**Q.** With `CCOc1ccccc1` [ethoxybenzene] as the compound, how does the mass density read?
**A.** The mass density was 955 ± 2 kg/m3.

**Q.** With `CN(C)C=O` [dimethylformamide] as the compound, how does the mass density read?
**A.** Its mass density is 939 ± 2 kg/m3.

**Q.** With `C1CCOC1` [tetrahydrofuran] as the compound, how does the mass density read?
**A.** Its mass density is 878 ± 2 kg/m3.

same assay, conditions: 308 K; 101.3 kPa; Liquid; Frequency=3 MHz; Sing-around technique in a fixed-path interferometer

**Q.** With `CN1CCCC1=O` [N-methylpyrrolidone] as the compound, how does the speed of sound read?
**A.** Its speed of sound is 1507 ± 2 m/s.

**Q.** For `CCOc1ccccc1` [ethoxybenzene], which speed of sound is on record?
**A.** Its speed of sound is 1329 ± 2 m/s.

**Q.** With `CN(C)C=O` [dimethylformamide] as the compound, how does the speed of sound read?
**A.** The speed of sound was 1420 ± 2 m/s.

**Q.** For `C1CCOC1` [tetrahydrofuran], which speed of sound is on record?
**A.** Its speed of sound is 1230 ± 2 m/s.

same assay, conditions: 308 K; 101.3 kPa; Liquid; Vibrating tube method

**Q.** For `CN1CCCC1=O` [N-methylpyrrolidone], which mass density is on record?
**A.** Its mass density is 1018 ± 2 kg/m3.

**Q.** Which mass density does the source give for `CCOc1ccccc1` [ethoxybenzene] here?
**A.** Its mass density is 951 ± 2 kg/m3.

**Q.** For `CN(C)C=O` [dimethylformamide], which mass density is on record?
**A.** Its mass density is 935 ± 2 kg/m3.

**Q.** For `C1CCOC1` [tetrahydrofuran], which mass density is on record?
**A.** Its mass density is 874 ± 2 kg/m3.

experiment: refractive index (Na D-line) (dimensionless); xn = mol fraction of the nth substance listed; settings: 298 K; 101.3 kPa; Liquid; Standard Abbe refractometry; x2 = 0

**Q.** Which refractive index does the source give for `CN1CCCC1=O` [N-methylpyrrolidone] + CCOc1ccccc1 here?
**A.** Its refractive index is 1.467 ± 0.002.

**Q.** With `C1CCOC1` [tetrahydrofuran] + CCOc1ccccc1 as the compound, how does the refractive index read?
**A.** The refractive index was 1.405 ± 0.002.

**Q.** Which refractive index does the source give for `CN(C)C=O` [dimethylformamide] + CCOc1ccccc1 here?
**A.** Its refractive index is 1.429 ± 0.002.

same assay, conditions: 303 K; 101.3 kPa; Liquid; Standard Abbe refractometry; x2 = 0

**Q.** For `CN1CCCC1=O` [N-methylpyrrolidone] + CCOc1ccccc1, which refractive index is on record?
**A.** Its refractive index is 1.466 ± 0.002.

**Q.** With `C1CCOC1` [tetrahydrofuran] + CCOc1ccccc1 as the compound, how does the refractive index read?
**A.** The refractive index was 1.403 ± 0.002.

**Q.** With `CN(C)C=O` [dimethylformamide] + CCOc1ccccc1 as the compound, how does the refractive index read?
**A.** The refractive index was 1.427 ± 0.002.

same assay, conditions: 308 K; 101.3 kPa; Liquid; Standard Abbe refractometry; x2 = 0

**Q.** For `CN1CCCC1=O` [N-methylpyrrolidone] + CCOc1ccccc1, which refractive index is on record?
**A.** Its refractive index is 1.464 ± 0.002.

**Q.** With `C1CCOC1` [tetrahydrofuran] + CCOc1ccccc1 as the compound, how does the refractive index read?
**A.** The refractive index was 1.4 ± 0.002.

**Q.** With `CN(C)C=O` [dimethylformamide] + CCOc1ccccc1 as the compound, how does the refractive index read?
**A.** The refractive index was 1.425 ± 0.002.

experiment: xn = mol fraction of the nth substance listed; settings: 298 K; 101.3 kPa; Liquid; Frequency=3 MHz; Sing-around technique in a fixed-path interferometer; x2 = 0

**Q.** Which speed of sound does the source give for `CN1CCCC1=O` [N-methylpyrrolidone] + CCOc1ccccc1 here?
**A.** Its speed of sound is 1546 ± 2 m/s.

**Q.** Which speed of sound does the source give for `C1CCOC1` [tetrahydrofuran] + CCOc1ccccc1 here?
**A.** The speed of sound was 1278 ± 2 m/s.

**Q.** With `CN(C)C=O` [dimethylformamide] + CCOc1ccccc1 as the compound, how does the speed of sound read?
**A.** Its speed of sound is 1457 ± 2 m/s.

same assay, conditions: 298 K; 101.3 kPa; Liquid; Vibrating tube method; x2 = 0

**Q.** For `CN1CCCC1=O` [N-methylpyrrolidone] + CCOc1ccccc1, which mass density is on record?
**A.** Its mass density is 1026 ± 2 kg/m3.

**Q.** With `C1CCOC1` [tetrahydrofuran] + CCOc1ccccc1 as the compound, how does the mass density read?
**A.** Its mass density is 882 ± 2 kg/m3.

**Q.** For `CN(C)C=O` [dimethylformamide] + CCOc1ccccc1, which mass density is on record?
**A.** Its mass density is 944 ± 2 kg/m3.

same assay, conditions: 303 K; 101.3 kPa; Liquid; Frequency=3 MHz; Sing-around technique in a fixed-path interferometer; x2 = 0

**Q.** Which speed of sound does the source give for `CN1CCCC1=O` [N-methylpyrrolidone] + CCOc1ccccc1 here?
**A.** Its speed of sound is 1526 ± 2 m/s.

**Q.** Which speed of sound does the source give for `C1CCOC1` [tetrahydrofuran] + CCOc1ccccc1 here?
**A.** The speed of sound was 1254 ± 2 m/s.

**Q.** Which speed of sound does the source give for `CN(C)C=O` [dimethylformamide] + CCOc1ccccc1 here?
**A.** The speed of sound was 1437 ± 2 m/s.

same assay, conditions: 303 K; 101.3 kPa; Liquid; Vibrating tube method; x2 = 0

**Q.** For `CN1CCCC1=O` [N-methylpyrrolidone] + CCOc1ccccc1, which mass density is on record?
**A.** Its mass density is 1022 ± 2 kg/m3.

**Q.** For `C1CCOC1` [tetrahydrofuran] + CCOc1ccccc1, which mass density is on record?
**A.** The mass density was 878 ± 2 kg/m3.

**Q.** With `CN(C)C=O` [dimethylformamide] + CCOc1ccccc1 as the compound, how does the mass density read?
**A.** Its mass density is 939 ± 2 kg/m3.

same assay, conditions: 308 K; 101.3 kPa; Liquid; Frequency=3 MHz; Sing-around technique in a fixed-path interferometer; x2 = 0

**Q.** Which speed of sound does the source give for `CN1CCCC1=O` [N-methylpyrrolidone] + CCOc1ccccc1 here?
**A.** Its speed of sound is 1507 ± 2 m/s.

**Q.** Which speed of sound does the source give for `C1CCOC1` [tetrahydrofuran] + CCOc1ccccc1 here?
**A.** Its speed of sound is 1230 ± 2 m/s.

**Q.** For `CN(C)C=O` [dimethylformamide] + CCOc1ccccc1, which speed of sound is on record?
**A.** Its speed of sound is 1420 ± 2 m/s.

same assay, conditions: 308 K; 101.3 kPa; Liquid; Vibrating tube method; x2 = 0

**Q.** Which mass density does the source give for `CN1CCCC1=O` [N-methylpyrrolidone] + CCOc1ccccc1 here?
**A.** The mass density was 1018 ± 2 kg/m3.

**Q.** Which mass density does the source give for `C1CCOC1` [tetrahydrofuran] + CCOc1ccccc1 here?
**A.** The mass density was 874 ± 2 kg/m3.

**Q.** With `CN(C)C=O` [dimethylformamide] + CCOc1ccccc1 as the compound, how does the mass density read?
**A.** Its mass density is 935 ± 2 kg/m3.

experiment: refractive index (Na D-line) (dimensionless); settings: 298 K; 101.3 kPa; Liquid; Standard Abbe refractometry

**Q.** Which refractive index does the source give for `CN1CCCC1=O` [N-methylpyrrolidone] here?
**A.** The refractive index was 1.467 ± 0.002.

**Q.** With `CCOc1ccccc1` [ethoxybenzene] as the compound, how does the refractive index read?
**A.** Its refractive index is 1.505 ± 0.002.

**Q.** With `CN(C)C=O` [dimethylformamide] as the compound, how does the refractive index read?
**A.** Its refractive index is 1.429 ± 0.002.

**Q.** Which refractive index does the source give for `C1CCOC1` [tetrahydrofuran] here?
**A.** The refractive index was 1.405 ± 0.002.

same assay, conditions: 303 K; 101.3 kPa; Liquid; Standard Abbe refractometry

**Q.** Which refractive index does the source give for `CN1CCCC1=O` [N-methylpyrrolidone] here?
**A.** Its refractive index is 1.466 ± 0.002.

**Q.** Which refractive index does the source give for `CCOc1ccccc1` [ethoxybenzene] here?
**A.** The refractive index was 1.503 ± 0.002.

**Q.** For `CN(C)C=O` [dimethylformamide], which refractive index is on record?
**A.** Its refractive index is 1.427 ± 0.002.

**Q.** For `C1CCOC1` [tetrahydrofuran], which refractive index is on record?
**A.** The refractive index was 1.403 ± 0.002.

same assay, conditions: 308 K; 101.3 kPa; Liquid; Standard Abbe refractometry

**Q.** With `CN1CCCC1=O` [N-methylpyrrolidone] as the compound, how does the refractive index read?
**A.** The refractive index was 1.464 ± 0.002.

**Q.** For `CCOc1ccccc1` [ethoxybenzene], which refractive index is on record?
**A.** The refractive index was 1.499 ± 0.002.

**Q.** Which refractive index does the source give for `CN(C)C=O` [dimethylformamide] here?
**A.** The refractive index was 1.425 ± 0.002.

**Q.** Which refractive index does the source give for `C1CCOC1` [tetrahydrofuran] here?
**A.** Its refractive index is 1.4 ± 0.002.
